The subject of one data set is Cyp1A1. The experiment in a line: qNPA gene expression, rifampicin-treated canine hepatocytes. Type of data set: cell-based. Particulars: 0-10 μM rifampicin.
Another data set deals with Cyp2D15. The description is as above. Particulars: 0-10 μM rifampicin. In kind it is cell-based.
Another data set deals with Cyp2A337. Particulars: canine hepatocytes, 0-10 μM rifampicin, qNPA.
For another data set, the system named is Cyp2B6. The experiment in a line: qNPA gene expression, rifampicin-treated human primary liver cells. To be noted: 0-10 μM rifampicin.
Another data set relates to Cyp2D6. The description is as above. Particulars: 0-10 μM rifampicin.

With `CO[C@H]1/C=C/O[C@@]2(C)Oc3c(C)c(O)c4c(O)c(c(/C=N/N5CCN(C)CC5)c(O)c4c3C2=O)NC(=O)/C(C)=C\C=C\[C@H](C)[C@H](O)[C@@H](C)[C@@H](O)[C@@H](C)[C@H](OC(C)=O)[C@@H]1C` [rifampicin], the Cyp1A1 gene expression result in the data set with Cyp1A1 is on record as “upregualted”. Also, in the data set on Cyp2D15, the Cyp2D15 gene expression entry is “upregualted”. Besides, the Cyp2A337 gene expression entry in the data set with Cyp2A337 is given as “upregualted”. Moreover, the “Cyp2B6 transcript level (enzyme induction)” value with Cyp2B6 was “induced”. In addition, the Cyp2D6 transcript level result with Cyp2D6 (qNPA) is given as “suppressed”. Also, the “suppression of Cyp2D6” value with Cyp2D6 (qNPA (Panel a of FIG. 27)) is on record as “less than 50%”.
